Laboratory results published in paper PMC6835155, “Lessons from LIMK1 enzymology and their impact on inhibitor design” (Biochemical Journal, 2019).
Counter-ions that a name gives are not always drawn.

Columns and labels:
LIMK1KD = molecular target: T1, LIMK1KD (Homo sapiens, UniProt P53667); assay: Differential (dynamic) scanning fluorimetry (DSF) assay, LIMK1KD; assay type: binding; settings: 2 µM LIMK1KD, compound 10 µM, single shot; for ΔTm at 10 µM: read-out: TM Shift LIMK1 (K)
T1 construct: His6 (N, cleaved yes); made in house; host or cells: baculovirus; Sf9 for virus, TriEx insect cells for expression
T1 sequence (P53667 330-637): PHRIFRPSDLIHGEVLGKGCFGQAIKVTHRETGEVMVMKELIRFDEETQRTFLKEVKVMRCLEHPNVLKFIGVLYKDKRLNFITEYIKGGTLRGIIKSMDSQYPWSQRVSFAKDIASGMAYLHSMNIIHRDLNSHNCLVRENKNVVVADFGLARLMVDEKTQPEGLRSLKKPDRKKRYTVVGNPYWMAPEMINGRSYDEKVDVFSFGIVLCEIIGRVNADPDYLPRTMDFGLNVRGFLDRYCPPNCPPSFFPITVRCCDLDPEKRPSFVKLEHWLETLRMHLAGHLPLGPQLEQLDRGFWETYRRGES

LIMK2KD = molecular target: T2, LIMK2KD (Homo sapiens, UniProt P53671); assay: Differential (dynamic) scanning fluorimetry (DSF) assay, LIMK2KD; assay type: binding; settings: LIMK2KD, compound 10 µM, single shot; for ΔTm at 10 µM: read-out: TM Shift LIMK2 (K)
T2 construct: The cDNA coding for LIMK2 residues 330 to 632 was PCR amplified; His6 (N, cleaved yes); made in house; host or cells: baculovirus; Sf9 for virus, TriEx insect cells for expression
T2 sequence (P53671 330-632): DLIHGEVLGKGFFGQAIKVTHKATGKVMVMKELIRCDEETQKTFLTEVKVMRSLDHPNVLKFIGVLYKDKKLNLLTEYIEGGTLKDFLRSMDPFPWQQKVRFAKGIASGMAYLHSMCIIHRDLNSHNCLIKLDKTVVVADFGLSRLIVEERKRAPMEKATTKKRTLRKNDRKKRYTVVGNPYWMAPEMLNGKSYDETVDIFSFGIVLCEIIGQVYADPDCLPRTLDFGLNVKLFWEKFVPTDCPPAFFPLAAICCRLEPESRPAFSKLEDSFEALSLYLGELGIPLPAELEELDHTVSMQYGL

Compound	TM Shift LIMK1 (K) (LIMK1KD)	TM Shift LIMK2 (K) (LIMK2KD)	ΔTm at 10 µM (LIMK1KD) [°C]	ΔTm at 10 µM (LIMK2KD) [°C]	other results
C=CC(=O)Nc1cccc(Nc2nc(Nc3ccc(Oc4ccnc(C(=O)NC)c4)cc3)ncc2F)c1 [CNX-774]	1.6	1.2	–	–	–
Nc1nc(Nc2ccc(S(N)(=O)=O)cc2)nn1C(=O)c1c(F)cccc1F [JNJ-7706621]	–	–	8.2	5.8	–
O=C(NOCC(O)CO)c1cc(Br)c(F)c(F)c1Nc1ccc(I)cc1F (stereo not shown) [PD318088]	0.6	2.8	–	–	–
N#Cc1c(O)c2c(-c3ccc(-c4ccccc4O)cc3)csc2[nH]c1=O [A-769662]	0.9	2.4	–	–	–
O=C(Nc1cccc(Cl)c1)Nc1ncc(CCNc2ncnc3ccsc23)s1 [SNS-314 Mesylate]	–	–	-0.5	0.8	–
NCC(=O)Nc1ccc(-n2nc(C(F)(F)F)cc2-c2ccc3c(ccc4ccccc43)c2)cc1 [OSU-03012 (AR-12)]	-1.2	0.8	–	–	–
FC(F)(F)c1ccc(/C=C/c2nc(COc3ccc(CCCCn4ccnn4)cc3)co2)cc1 [Mubritinib (TAK 165), Mubritinib]	–	–	0.6	-0.4	–
Cc1cc(Nc2ncc(Cl)c(Nc3ccccc3S(=O)(=O)C(C)C)n2)c(OC(C)C)cc1C1CCNCC1 [LDK378]	–	–	0.2	-0.3	–
COc1cc2nccc(Oc3ccc(NC(=O)NC4CC4)c(Cl)c3)c2cc1C(N)=O [Lenvatinib (E7080), Lenvatinib]	–	–	0.7	0.1	–
O=C(Nc1ccc(OC(F)(F)F)cc1)c1sccc1NCc1ccnc2ccccc12 [OSI-930]	–	–	0.7	6.2	–
Cn1c(Nc2ccc(C(F)(F)F)cc2)nc2cc(Oc3ccnc(-c4ncc(C(F)(F)F)[nH]4)c3)ccc21 [RAF265 (CHIR-265)]	–	–	1.1	5.1	–
Clc1ccc(C2(c3ccc(-c4cn[nH]c4)cc3)CCNCC2)cc1 [AT7867]	0.9	1.4	–	–	–
AZD4547	-0.1	-0.1	–	–	–
O=C(Nc1c[nH]nc1-c1nc2ccc(CN3CCOCC3)cc2[nH]1)NC1CC1 [AT9283]	–	–	9	4	–
COc1ccc(Cl)c(Nc2nc3ccccc3nc2NS(=O)(=O)c2cccc(NC(=O)C(C)(C)N)c2)c1 [XL147]	-0.1	–	–	–	TM Shift LIMK2 (K) (LIMK2KD; 10 µM): 0.6 K
O=C(Nc1cccc(Nc2ncc(Br)c(NCCc3cnc[nH]3)n2)c1)N1CCCC1 [BX-912]	3.6	2.8	–	–	–
Cc1cnc(NC(=O)Nc2cc(Br)c(C)cc2OC[C@@H]2CNCCO2)cn1 [LY2603618]	0.1	–	–	–	TM Shift LIMK2 (K) (LIMK2KD; 10 µM): 0.7 K
Nc1nccc(Oc2ccc(NC(=O)c3c[nH]cc(-c4ccc(F)cc4)c3=O)cc2F)c1Cl [BMS-794833]	–	–	1.5	2	–
CNC(=O)c1ccccc1Nc1nc(Nc2ccc(N3CCOCC3)cc2OC)ncc1Cl [TAE226 (NVP-TAE226)]	1.1	3.3	–	–	–
Cc1csc(-c2nnc(Nc3ccc(Oc4ncccc4-c4ccnc(N)n4)cc3)c3ccccc23)c1 [AMG-900]	–	–	0.5	-2.1	–

Compound	TM Shift LIMK1 (K) (LIMK1KD)	TM Shift LIMK2 (K) (LIMK2KD)	ΔTm at 10 µM (LIMK1KD) [°C]	ΔTm at 10 µM (LIMK2KD) [°C]	other results
N#Cc1c(Oc2ccc(F)c(NC(=O)Cc3cccc(C(F)(F)F)c3)c2)ccc2nc(NC(=O)C3CC3)sc12 [TAK-632]	1.3	3.2	–	–	–
Cc1ccc(-n2nc(C(C)(C)C)cc2NC(=O)Nc2ccc(OCCN3CCOCC3)c3ccccc23)cc1 [Doramapimod]	-0.1	–	–	0.9	TM Shift LIMK1 (K) (LIMK1KD; listed as BIRB 796 (Doramapimod)): 0.5 K; TM Shift LIMK2 (K) (LIMK2KD; 10 µM): 0.7 K
CN1CCN(c2cccc(Nc3nc4c(-c5ccc(S(C)(=O)=O)cc5)cccn4n3)c2)CC1 [CEP-33779]	1.0	1.5	–	–	–
COc1cc(Nc2ncc(F)c(Nc3ccc4c(n3)N(COP(=O)(O)O)C(=O)C(C)(C)O4)n2)cc(OC)c1OC [Fostamatinib (R788), Fostamatinib]	–	–	1	0.5	–
CNC(=O)Nc1ccc(-c2nc(N3CC4CCC(C3)O4)c3cnn(C4CCC5(CC4)OCCO5)c3n2)cc1 [WYE-125132 (WYE-132)]	0.5	0.9	–	–	–
CC(C)(C)Cn1c(N)nc2ccc(-c3[nH]c(C(C)(C)C)nc3-c3ccc(F)cc3)nc21 [Ralimetinib]	–	–	3.2	3.1	–
Cc1c(CN2CCN(C(=O)[C@H](C)O)CC2)sc2c(N3CCOCC3)nc(-c3cnc(N)nc3)nc12 [GDC-0980 (RG7422)]	1.4	0.6	–	–	–
COC(=O)[C@]12CCC(C)(C)C[C@H]1[C@H]1C(=O)C=C3[C@@]4(C)C=C(C#N)C(=O)C(C)(C)[C@@H]4CC[C@@]3(C)[C@]1(C)CC2 [Bardoxolone Methyl]	–	–	-1	0.8	–
CNC(=O)c1ccccc1Sc1ccc2c(/C=C/c3ccccn3)n[nH]c2c1 [Axitinib]	–	–	2	-0.7	–
COc1ccc(-c2cc3c(C)nc(N)nc3n([C@H]3CC[C@H](OCCO)CC3)c2=O)cn1 [PF-04691502]	0.9	0.6	–	–	–
COc1ccc(-c2ccc3c(N4CCOCC4)nc(N4C[C@@H](C)O[C@@H](C)C4)nc3n2)cc1CO [KU-0063794]	–	–	0.3	2	–
C[C@@H](N)[C@H]1CC[C@H](C(=O)Nc2ccncc2)CC1.Cl.Cl [Y-27632 2HCl]	-0.7	0.9	–	–	–
C[C@H]1[C@H](C)CC[C@]2(C(=O)O)CC[C@]3(C)C(=CC[C@@H]4[C@@]5(C)C[C@@H](O)[C@H](O)[C@@](C)(CO)[C@@H]5CC[C@]43C)[C@H]12 [Asiatic Acid]	–	–	-0.9	1.7	–
Nc1ccc(-c2ccc3ncc4ccc(=O)n(-c5cccc(C(F)(F)F)c5)c4c3c2)cn1 [Torin 2]	-1.1	-0.7	–	–	–
CO[C@H]1C[C@@H]2CC[C@@H](C)[C@@](O)(O2)C(=O)C(=O)N2CCCC[C@H]2C(=O)O[C@H]([C@H](C)C[C@@H]2CC[C@@H](OC(=O)C(C)(CO)CO)[C@H](OC)C2)CC(=O)[C@H](C)/C=C(\C)[C@@H](O)[C@@H](OC)C(=O)[C@H](C)C[C@H](C)/C=C/C=C/C=C/1C [Temsirolimus (CCI-779, NSC 683864), Temsirolimus]	–	–	-0.7	0	–
CO[C@H]1C[C@@H]2CC[C@@H](C)[C@@](O)(O2)C(=O)C(=O)N2CCCC[C@H]2C(=O)O[C@H]([C@H](C)C[C@@H]2CC[C@@H](O)[C@H](OC)C2)CC(=O)[C@H](C)/C=C(\C)[C@@H](O)[C@@H](OC)C(=O)[C@H](C)C[C@H](C)/C=C/C=C/C=C/1C [Rapamycin (Sirolimus), Rapamycin]	–	–	-0.1	0	–
CC(C)(C)c1cc(C=C(C#N)C#N)cc(C(C)(C)C)c1O [Tyrphostin 9]	3.5	6.3	–	–	–
COc1cc(F)c(F)c(Nc2ccc(I)cc2F)c1NS(=O)(=O)C1(C[C@H](O)CO)CC1 [Refametinib]	–	–	-1	1.1	–
N#CC1(c2ccc(NC(=O)c3cccnc3NCc3ccncc3)cc2)CCCC1 [Apatinib]	–	–	0.2	3.8	–
C[C@@H](Oc1ccc2[nH]nc(/C=C/c3cnn(CCO)c3)c2c1)c1c(Cl)cncc1Cl [LY2874455]	–	–	2.5	0.1	–
